{"source": "patent US8835415B2", "about": "“Standardized composition, method of manufacture and use in the resolution of RNA virus infection” (priority 2009, dated 2014)", "tested_on": "H1N1 virus, Resistant strain (6706)", "test": "microbe, parasite or virus in culture", "assay_type": "cell-based", "settings": "Influenza A virus, H1N1, MDCK"}
{"compound": "CCOC(=O)C1=C[C@@H](OC(CC)CC)[C@H](NC(C)=O)[C@@H](N)C1", "note": "[Tamiflu, Oseltamivir]", "values": [{"measurement": "EC50", "result": "> 5", "unit": "µM"}]}
